The record followed here is patent publication US20030170704A1, “Substance capable of controlling the inclusion of exon 10 of the tau gene, and its therapeutic use against tauopathies” (Max-Planck-Gesellschaft Zur Foerd Der Wissen. E.V., priority 1999, published 2003).

Test [1] relates to clk2 phosphorylation / exon 10 inclusion of the tau gene. Kind of test: Changing clk2 phosphorylation levels by kinase/phosphatase inhibitors. Format: cell-based.
The test system of test [2] is tau exon 10 inclusion (SV10 minigene). Put plainly: RT-PCR of tau exon 10 minigene SV10 1:1 co-transfected with splicing regulator cDNA plasmids in COS cells. The class given is cell-based, human. As to conditions: 1:1 co-transfection, FIG. 4. On the procedure: Plasmid DNA was purified by cesium chloride banding (Sambrook et al., 1989). The plasmids obtained in Examples 1 and 2 were introduced into cells by the lipofection method (LT1, Panvera).
Plates (100 mm) that had reached ˜30% confluence were transfected with 10 μg of construct DNA or 5 μg of each plasmid for co-transfections. The medium was changed 16 h after transfection, without glycerol shock.
Total RNA was isolated 48 h post-transfection by the TRIzol method (Life Technologies). […]
The RT-PCR experiments were done twice with the polyA^+ RNAs and with total RNAs from three independent transfections, to ensure reproducibility. […] In FIGS. 1-4, the percent of the 10^+ isoform was calculated by scanning the bands from three independent transfections and measuring the areas under the curves (by the IPLab Gel program from Scanalytics).
RT-PCR was performed in a manner as described in Example 4 (using primer pair: INS1/INS3), except that-mammalian cells were analyzed which had been 1:1 co-transfected with tau exon 10 containing minigene constructs (denoted SV 10) and with plasmids containing cDNA of various plicing regulators. […]

Take `C=C1[C@@H](O)[C@@H]2O[C@]3(CC[C@H](/C=C/[C@@H](C)[C@@H]4CC(C)=C[C@@]5(O[C@H](C[C@@](C)(O)C(=O)O)CC[C@H]5O)O4)O3)CC[C@H]2O[C@@H]1[C@@H](O)C[C@H](C)[C@H]1O[C@@]2(CCCCO2)CC[C@H]1C` [okadaic acid]: the “controlled change of exon 10 inclusion of the tau gene via clk2 phosphorylation levels” value in test [1] is reported as “changing the clk2 phosphorylation levels”.

On to `OC[C@H]1O[C@@H](n2cnc3cc(Cl)c(Cl)cc32)[C@H](O)[C@@H]1O` [5,6-dichloro-1-b-D-ribofuranosylbenzimidazole], for which the “controlled change of exon 10 inclusion of the tau gene via clk2 phosphorylation levels” value in test [1] was “changing the clk2 phosphorylation levels”.

Turning to “ASF/SF2: serine/arginine-rich (SR) protein splicing regulator, expressed from cDNA under the CMV promoter”, the “effect on tau exon 10 inclusion (10+/10- isoform ratio by RT-PCR)” value in test [2] was “inhibited”.
